Data set [1] has as its target T1, RintHH_11820 (NatB), SBP of N-I transporter (Richelia intracellularis, UniProt M1WZ73).
T1 construct: mature protein, signal peptide removed, N-terminal His tag, E. coli, nickel column
T1 sequence (M1WZ73 24-438): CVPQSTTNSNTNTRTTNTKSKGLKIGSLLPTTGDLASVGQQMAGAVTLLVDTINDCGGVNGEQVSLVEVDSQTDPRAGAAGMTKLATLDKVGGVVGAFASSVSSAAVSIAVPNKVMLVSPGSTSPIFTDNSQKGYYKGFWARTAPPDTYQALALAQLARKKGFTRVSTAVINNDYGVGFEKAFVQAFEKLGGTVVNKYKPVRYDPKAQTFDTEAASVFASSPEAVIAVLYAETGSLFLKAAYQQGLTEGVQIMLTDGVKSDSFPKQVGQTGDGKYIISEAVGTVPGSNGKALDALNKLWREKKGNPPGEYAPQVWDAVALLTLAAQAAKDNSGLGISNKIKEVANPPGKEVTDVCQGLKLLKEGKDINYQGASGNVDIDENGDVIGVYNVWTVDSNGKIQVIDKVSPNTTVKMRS
As to the kind of experiment: intrinsic Trp fluorescence quenching. As to conditions: excitation 280 nm, emission ~340 nm; ligand ~116 µM. In kind it is binding.

Data set [2] concerns the target T2, RintHH_12770 (NatF), SBP of N-II transporter (Richelia intracellularis, UniProt M1WZB0).
T2 construct: mature protein, signal peptide removed, N-terminal His tag, E. coli, nickel column
T2 sequence (M1WZB0 22-348 limits assumed): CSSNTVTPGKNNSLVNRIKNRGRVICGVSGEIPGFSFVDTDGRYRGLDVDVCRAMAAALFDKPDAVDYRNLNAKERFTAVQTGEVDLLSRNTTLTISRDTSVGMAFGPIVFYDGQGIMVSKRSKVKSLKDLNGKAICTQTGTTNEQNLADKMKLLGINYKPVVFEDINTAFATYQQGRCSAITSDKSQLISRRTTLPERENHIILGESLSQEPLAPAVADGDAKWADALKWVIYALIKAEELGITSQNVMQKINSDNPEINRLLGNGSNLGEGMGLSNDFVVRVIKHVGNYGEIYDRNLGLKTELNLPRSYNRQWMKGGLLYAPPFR
The data set can be described thus: intrinsic Trp fluorescence quenching. In kind it is binding. As to conditions: excitation 280 nm, emission ~340 nm; ligand ~7 µM.

Data set [3] addresses T3, RintHH_17430 (GlsR), periplasmic SBP (Richelia intracellularis, UniProt M1X141).
T3 construct: mature protein, signal peptidase II signal peptide removed, N-terminal Cys fused to Strep-tag II; pET28b(+), E. coli, StrepTrap
T3 sequence (M1X141 41-442): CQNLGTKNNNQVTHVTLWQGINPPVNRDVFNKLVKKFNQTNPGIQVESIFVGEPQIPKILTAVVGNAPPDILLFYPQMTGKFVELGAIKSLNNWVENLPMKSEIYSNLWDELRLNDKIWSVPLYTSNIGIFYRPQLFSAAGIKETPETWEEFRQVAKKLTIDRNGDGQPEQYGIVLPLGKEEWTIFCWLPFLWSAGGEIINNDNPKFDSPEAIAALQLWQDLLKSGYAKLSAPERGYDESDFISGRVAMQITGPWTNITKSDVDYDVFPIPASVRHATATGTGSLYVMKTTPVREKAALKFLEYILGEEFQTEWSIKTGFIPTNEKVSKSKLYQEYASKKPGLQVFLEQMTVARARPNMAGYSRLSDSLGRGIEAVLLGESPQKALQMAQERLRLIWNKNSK
As to the kind of experiment: intrinsic Trp fluorescence quenching. As to conditions: 0.02 mM protein, excitation 280 nm, emission ~340 nm. Type of data set: binding.

Substrate in data set [4]: OC[C@H]1O[C@@](CO)(O[C@H]2O[C@H](CO)[C@@H](O)[C@H](O)[C@H]2O)[C@@H](O)[C@@H]1O
As to the kind of experiment: glucose production by HPLC (Dionex), E. coli cell-free extract. As to conditions: pH 7, 30 °C, 120 mM potassium phosphate, crude extract. In kind it is biochemical, Richelia intracellularis.

Turning to `NCC(=O)O` [Gly], the “% quenching” value in data set [1] is “substantial quenching was produced by the neutral amino acids (L-Pro, L-Ala, L-Phe, Gly, and L-Leu)”.
Same read-out and setting: for `C[C@H](N)C(=O)O` [L-Ala] the value was “substantial quenching was produced by the neutral amino acids (L-Pro, L-Ala, L-Phe, Gly, and L-Leu)”.
Take `N[C@@H](CCC(=O)O)C(=O)O` [L-Glu]: the “% quenching” value in data set [2] is listed as “substantial quenching was only seen with L-Glu”.
Turning to `CC(C)C[C@H](N)C(=O)O` [L-Leu], the “% quenching” value in data set [1] is “substantial quenching was produced by the neutral amino acids (L-Pro, L-Ala, L-Phe, Gly, and L-Leu)”.
The same measure, in the same setting: for `O=C(O)[C@@H]1CCCN1` [L-Pro] the value was “substantial quenching was produced by the neutral amino acids (L-Pro, L-Ala, L-Phe, Gly, and L-Leu)”.
On to `OC[C@H]1O[C@@](CO)(O[C@H]2O[C@H](CO)[C@@H](O)[C@H](O)[C@H]2O)[C@@H](O)[C@@H]1O` [sucrose], for which, in data set [3], the “% quenching at 1 μM” value is on record as ~ 22.5%.

B1: RintHH_3860 (InvB), neutral invertase (Richelia intracellularis HH01) (protein)
chain: MQPHKVILKDVEKDAWDTLEKTIIYYQGNPIGTVAALDSTANTLNYDQCFVRDFVVSALLFLIKGRTEIVRNFLKQTLKLQPKKKQLGTYKPGRGLMPASFKVTFNNGQEELEADFGENAIARVTPVDSSLWWIVLLRAYVVATKDYSLAYQDDFQQGIRLILDLCLATRFDMYPTLLVPDGACMIDRRLGIHGHPLEIQSLYYAALRAARELLICQGNEELVFAIDNRLPVLAAHIRKHYWIDLHRLNDIYRYRGEEYGKDAVNQFNIYVDSIPYSELDRWLPKGGGYLAGNVGPSQMDTRFFTLGNLMAVIIDLTTQEQSQAIMTLIEQRWDDLVGDMPMKITFPALENEEYKYVTGCDPKNIPWSYHNAGNWPVLMWMLAAACVKTNHRELMQRALTIAQERLKNDEWPEYYDGKQGRLIGRQSRKYQTWTIVGFLLAKEILAQPGSLSLISFDPFITKQVSQACELKFDYFDS
notes: synthetic gene in pET28b(+), expressed in E. coli; crude cell-free extract (purification unsuccessful)
As a reminder, the Km is the concentration of substrate that gives half-maximal velocity. Consider B1, for which the Km in data set [4] is 25.7 mM.

These data come from PMC10299089, “Heterologous expression of genes from a cyanobacterial endosymbiont highlights substrate exchanges with its diatom host” (PNAS Nexus, 2023).
